The IC50 is the concentration at which inhibition is half-maximal.

The test system of experiment [1] is SW620 cells. Description: Ras cellular assay, growth of cells with K-Ras G12V mutation (CellTiter-Glo). The class given is cell-based. Conditions: Homo sapiens, SW-620; cell growth, Example 9, G12V mutation; read-out: IC50 against SW620 cells. Summed up: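 IC50 values came from a four-parameter fit of CellTiter-Glo viability, read roughly 6 days after dosing with e.g. a 10-point threefold dilution series. G12V-mutant SW620 cells (e.g. 800 per well) had been plated the previous day in RPMI-1640/10% heat-inactivated FBS, on tissue culture-treated or ultra-low attachment plates.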
In general terms: In ATP-based viability assays light output follows the ATP content of the culture.

The test system of experiment [2] is GP2D cells. The experiment is described as follows: Ras cellular assay, growth of cells with K-Ras G12D mutation (CellTiter-Glo). The class given is cell-based. The conditions noted are these: cell growth, Example 9, G12D mutation, read-out: IC50 against GP2D cells.
Experiment [3] addresses T1, K-Ras G12D (Homo sapiens, UniProt P01116, G12D).
T1 construct: made in house; host or cells: E. coli BL21 (DE3)
Description: HTRF resonance energy transfer assay, K-Ras G12D / SOS1 interaction. The conditions noted are these: HTRF assay of Example 5; read-out: IC50 against K-Ras G12D. The class given is biochemical. Summed up: (§1)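 Compounds, tested in duplicate at 10 μM down to 0.01 μM, were read after about 10 min or more by HTRF as the 665/620 nm emission ratio (337 nm excitation) to derive IC50. This ratio reports FRET between an anti-GST-Eu donor on GST-K-Ras (wild-type or mutant) and an anti-6His-XL665 acceptor on His-hSOS1. Buffer: ~5 mM HEPES pH 7.4, 150 mM NaCl, 1 mM DTT, 0.05% BSA, 0.0025% Igepal.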
A general note: In TR-FRET formats the signal depends on donor and acceptor labels being close together.

In experiment [4] the target is T2, K-Ras G12V (Homo sapiens, UniProt P01116, G12V).
T2 construct: made in house; host or cells: E. coli BL21 (DE3)
T2 sequence (P01116 1-188 isoform P01116-2 G12V): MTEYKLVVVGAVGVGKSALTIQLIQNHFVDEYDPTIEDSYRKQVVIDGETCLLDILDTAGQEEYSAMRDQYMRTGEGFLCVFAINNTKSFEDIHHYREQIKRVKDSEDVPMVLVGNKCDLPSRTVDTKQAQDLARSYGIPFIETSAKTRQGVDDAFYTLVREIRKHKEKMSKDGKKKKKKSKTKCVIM
Description: HTRF resonance energy transfer assay, K-Ras G12V / SOS1 interaction. The class given is biochemical. The conditions noted are these: HTRF assay of Example 5; read-out: IC50 against K-Ras G12V. Summed up:
as §1

The target in experiment [5] is T3, K-Ras G12S (Homo sapiens, UniProt P01116, G12S).
T3 construct: made in house; host or cells: E. coli BL21 (DE3)
T3 sequence (P01116 1-188 isoform P01116-2 G12S): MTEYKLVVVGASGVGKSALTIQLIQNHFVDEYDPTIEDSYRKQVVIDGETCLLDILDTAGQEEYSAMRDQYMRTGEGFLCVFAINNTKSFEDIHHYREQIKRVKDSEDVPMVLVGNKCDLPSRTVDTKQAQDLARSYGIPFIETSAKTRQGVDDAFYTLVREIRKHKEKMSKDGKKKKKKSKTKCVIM
Description: HTRF resonance energy transfer assay, K-Ras G12S / SOS1 interaction. The conditions noted are these: HTRF assay of Example 5; read-out: IC50 against K-Ras G12S. The class given is biochemical. In short, it runs like this:
as §1

Experiment [6] has as its target T4, K-Ras WT (Homo sapiens, UniProt P01116).
T4 construct: made in house; host or cells: E. coli BL21 (DE3)
The experiment is described as follows: HTRF resonance energy transfer assay, K-Ras WT / SOS1 interaction. The experiment is classed as biochemical. The conditions noted are these: HTRF assay of Example 5; read-out: IC50 against K-Ras WT. In short, it runs like this:
as §1

Structures are written as SMILES.

T4 sequence (P01116 1-188 isoform P01116-2): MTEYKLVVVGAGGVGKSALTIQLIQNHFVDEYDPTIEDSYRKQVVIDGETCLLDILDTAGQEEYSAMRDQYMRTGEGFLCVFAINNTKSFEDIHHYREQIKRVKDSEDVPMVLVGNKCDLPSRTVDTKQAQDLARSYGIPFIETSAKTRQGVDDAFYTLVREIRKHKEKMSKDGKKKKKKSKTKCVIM
T1 sequence (P01116 1-188 isoform P01116-2 G12D): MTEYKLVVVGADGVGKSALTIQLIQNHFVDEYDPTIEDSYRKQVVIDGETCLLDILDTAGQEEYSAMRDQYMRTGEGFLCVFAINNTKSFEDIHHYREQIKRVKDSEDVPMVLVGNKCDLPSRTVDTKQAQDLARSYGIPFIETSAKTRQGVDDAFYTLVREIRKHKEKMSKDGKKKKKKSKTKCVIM

Turning to `C=C[C@H]1COc2c(Cl)c(-c3ccc(F)c4sc(N)c(C#N)c34)c(F)c3nc(OC[C@@]45CCCN4C[C@H](F)C5)nc(c23)N1CCC(F)F` (single isomer, unassigned) [Compound 727], the values for the IC50 in experiment [1] and in experiment [2] were less than 5 µM and less than 500 nM, respectively.

For the molecule `N#Cc1c(N)sc2c(F)ccc(-c3c(Cl)c4c5c(nc(OC[C@@]67CCCN6C[C@H](F)C7)nc5c3F)N(C3CCOC3)[C@@H](C3(F)CC3)CO4)c12` (single isomer, unassigned) [Compound 772], the IC50 in experiment [3] was less than 100 nM; in experiment [4], less than 100 nM; in experiment [1], less than 5 µM; in experiment [2], less than 500 nM; in experiment [5] it was less than 100 nM; in experiment [6], less than 100 nM.

In the case of `C=C[C@H]1COc2c(Cl)c(-c3ccc(F)c4sc(N)c(C#N)c34)c(F)c3nc(OC[C@@]45CCCN4C[C@H](F)C5)nc(c23)N1C1CCOC1` (single isomer, unassigned) [Compound 980], the half-inhibitory concentration (IC50) was less than 100 nM in experiment [3]; less than 100 nM in experiment [4]; less than 5 µM in experiment [1]; less than 500 nM in experiment [2]; less than 100 nM in experiment [5]; less than 100 nM in experiment [6].

`CN(C)C1(CN2CCOc3c(Cl)c(-c4ccc(F)c5sc(N)c(C#N)c45)c(F)c4nc(OC[C@@]56CCCN5C[C@H](F)C6)nc2c34)CCC1` [Compound 606, 2-amino-4-(8-chloro-4-((1-(dimethylamino)cyclobutyl)methyl)-10-fluoro-2-(((2R,7aS)-2-fluorotetrahydro-1H-pyrrolizin-7a(5H)-yl)methoxy)-5,6-dihydro-4H-[1,4]oxazepino[5,6,7-de]quinazolin-9-yl)-7-fluorobenzo[b]thiophene-3-carbonitrile]: the half-inhibitory concentration (IC50) in experiment [3] was less than 100 nM; in experiment [4], less than 100 nM; in experiment [1] it was less than 5 µM; in experiment [2], less than 500 nM; in experiment [5], less than 100 nM; in experiment [6], less than 100 nM.

Turning to `COCCN1c2nc(OC[C@@]34CCCN3C[C@H](F)C4)nc3c(F)c(-c4ccc(F)c5sc(N)c(C#N)c45)c(Cl)c(c23)OC[C@@H]1CNC=O` [Compound 607, N-(((5S)-9-(2-amino-3-cyano-7-fluorobenzo[b]thiophen-4-yl)-8-chloro-10-fluoro-2-(((2R,7aS)-2-fluorotetrahydro-1H-pyrrolizin-7a(5H)-yl)methoxy)-4-(2-methoxyethyl)-5,6-dihydro-4H-[1,4]oxazepino[5,6,7-de]quinazolin-5-yl)methyl)formamide], the 50% inhibitory concentration (IC50) in experiment [3] is less than 100 nM; in experiment [4], less than 100 nM; in experiment [1] it was less than 5 µM; in experiment [2] it was less than 500 nM; in experiment [5] it was less than 100 nM; in experiment [6], less than 100 nM.

`N#Cc1c(N)sc2c(F)ccc(-c3c(Cl)c4c5c(nc(OC[C@@]67CCCN6C[C@H](F)C7)nc5c3F)N(CCC(F)F)[C@@H](CNC=O)CO4)c12` [Compound 614, N-(((5S)-9-(2-amino-3-cyano-7-fluorobenzo[b]thiophen-4-yl)-8-chloro-4-(3,3-difluoropropyl)-10-fluoro-2-(((2R,7aS)-2-fluorotetrahydro-1H-pyrrolizin-7a(5H)-yl)methoxy)-5,6-dihydro-4H-[1,4]oxazepino[5,6,7-de]quinazolin-5-yl)methyl)formamide]: the concentration for half-maximal inhibition (IC50) is less than 100 nM in experiment [3]; less than 100 nM in experiment [4]; less than 5 µM in experiment [1]; less than 500 nM in experiment [2]; less than 100 nM in experiment [5]; less than 100 nM in experiment [6].

Consider `N#Cc1c(N)sc2c(F)ccc(-c3c(Cl)c4c5c(nc(OC[C@@]67CCCN6C[C@H](F)C7)nc5c3F)N[C@@H](C(F)F)CO4)c12` [Compound 618, 2-amino-4-((R)-8-chloro-5-(difluoromethyl)-10-fluoro-2-(((2R,7aS)-2-fluorotetrahydro-1H-pyrrolizin-7a(5H)-yl)methoxy)-5,6-dihydro-4H-[1,4]oxazepino[5,6,7-de]quinazolin-9-yl)-7-fluorobenzo[b]thiophene-3-carbonitrile], for which the concentration for half-maximal inhibition (IC50) was less than 100 nM in experiment [3]; less than 100 nM in experiment [4]; less than 5 µM in experiment [1]; less than 500 nM in experiment [2]; less than 100 nM in experiment [5]; less than 100 nM in experiment [6].

For `C#C[C@H]1COc2c(Cl)c(-c3ccc(F)c4sc(N)c(C#N)c34)c(F)c3nc(OC[C@@]45CCCN4C[C@H](F)C5)nc(c23)N1CC(F)F` [Compound 730, 2-amino-4-((5S)-8-chloro-4-(2,2-difluoroethyl)-5-ethynyl-10-fluoro-2-(((2R,7aS)-2-fluorotetrahydro-1H-pyrrolizin-7a(5H)-yl)methoxy)-5,6-dihydro-4H-[1,4]oxazepino[5,6,7-de]quinazolin-9-yl)-7-fluorobenzo[b]thiophene-3-carbonitrile], the IC50 in experiment [1] was less than 5 µM; in experiment [2] it was less than 500 nM.

As for `CNCCN1CCOc2c(Cl)c(-c3ccc(F)c4sc(N)c(C#N)c34)c(F)c3nc(OC[C@@]45CCCN4C[C@H](F)C5)nc1c23` [Compound 961, 2-amino-4-(8-chloro-10-fluoro-2-(((2R,7aS)-2-fluorotetrahydro-1H-pyrrolizin-7a(5H)-yl)methoxy)-4-(2-(methylamino)ethyl)-5,6-dihydro-4H-[1,4]oxazepino[5,6,7-de]quinazolin-9-yl)-7-fluorobenzo[b]thiophene-3-carbonitrile], the concentration for half-maximal inhibition (IC50) is less than 100 nM in experiment [3]; less than 100 nM in experiment [4]; less than 500 nM in experiment [2]; less than 100 nM in experiment [5]; less than 100 nM in experiment [6].

`C[C@H]1COc2c(Cl)c(-c3ccc(F)c4sc(N)c(C#N)c34)c(F)c3nc(OC[C@@]45CCCN4C[C@H](F)C5)nc(c23)N1CC(F)F` [Compound 1088, 2-amino-4-((5S)-8-chloro-4-(2,2-difluoroethyl)-10-fluoro-2-(((2R,7aS)-2-fluorotetrahydro-1H-pyrrolizin-7a(5H)-yl)methoxy)-5-methyl-5,6-dihydro-4H-[1,4]oxazepino[5,6,7-de]quinazolin-9-yl)-7-fluorobenzo[b]thiophene-3-carbonitrile]: the half-maximal inhibitory concentration (IC50) in experiment [4] is less than 100 nM; in experiment [1], less than 5 µM; in experiment [2], less than 500 nM; in experiment [5] it was less than 100 nM; in experiment [6], less than 100 nM.

In the case of `N#Cc1c(N)sc2c(F)ccc(-c3c(Cl)c4c5c(nc(OC[C@@]67CCCN6C[C@H](F)C7)nc5c3F)N(CC(F)F)[C@@H](C3CC3C#N)CO4)c12` (stereo partly drawn) [Compound 1109, 2-amino-4-((5S)-8-chloro-5-(2-cyanocyclopropyl)-4-(2,2-difluoroethyl)-10-fluoro-2-(((2R,7aS)-2-fluorotetrahydro-1H-pyrrolizin-7a(5H)-yl)methoxy)-5,6-dihydro-4H-[1,4]oxazepino[5,6,7-de]quinazolin-9-yl)-7-fluorobenzo[b]thiophene-3-carbonitrile], the half-inhibitory concentration (IC50) in experiment [1] was less than 5 µM; in experiment [2], less than 500 nM.

For the molecule `N#Cc1c(N)sc2c(F)ccc(-c3c(Cl)c4c5c(nc(OC[C@@]67CCCN6C[C@H](F)C7)nc5c3F)N([C@@H]3CCNC3)CCO4)c12` [Compound 1124, 2-amino-4-(8-chloro-10-fluoro-2-(((2R,7aS)-2-fluorotetrahydro-1H-pyrrolizin-7a(5H)-yl)methoxy)-4-((R)-pyrrolidin-3-yl)-5,6-dihydro-4H-[1,4]oxazepino[5,6,7-de]quinazolin-9-yl)-7-fluorobenzo[b]thiophene-3-carbonitrile], the IC50 in experiment [3] was less than 100 nM; in experiment [4], less than 100 nM; in experiment [2] it was less than 500 nM; in experiment [5], less than 100 nM; in experiment [6], less than 100 nM.
